# Assay results: patent US11931424B2, “Combination MCL-1 inhibitors with anti-body drug conjugates” (Gilead Sciences, Inc., priority 2021, dated 2024)
# Test system: panel of breast cancer cell lines
# Test: Compound A with targeted agents and chemotherapies, 72-hour in vitro proliferation assays
# Type: cell-based
# Settings: compound A × partner, 72-hour proliferation
smiles,measurement,setting,value
CCOc1cc2ncc(C#N)c(Nc3ccc(OCc4ccccn4)c(Cl)c3)c2cc1NC(=O)/C=C/CN(C)C [Neratinib],Best CI,AU565 cell line,0.40
same,Bliss Volume,AU565 cell line,18.09
same,HSA volume,AU565 cell line,11.74
same,Loewe Volume,AU565 cell line,10.72
same,Synergy Score,AU565 cell line,19.43
same,Best CI,BT-20 cell line,0.05
same,Bliss Volume,BT-20 cell line,38.29
same,HSA volume,BT-20 cell line,28.06
same,Loewe Volume,BT-20 cell line,28.33
same,Synergy Score,BT-20 cell line,58.64
same,Best CI,CAL-51 cell line,0.29
same,Bliss Volume,CAL-51 cell line,6.99
same,HSA volume,CAL-51 cell line,4.62
same,Loewe Volume,CAL-51 cell line,6.71
same,Synergy Score,CAL-51 cell line,14.86
same,Best CI,CAL-85-1 cell line,0.13
same,Bliss Volume,CAL-85-1 cell line,22.07
same,HSA volume,CAL-85-1 cell line,18.05
same,Loewe Volume,CAL-85-1 cell line,16.51
same,Synergy Score,CAL-85-1 cell line,28.31
same,Best CI,CAL-120 cell line,0.82
same,Bliss Volume,CAL-120 cell line,4.43
same,HSA volume,CAL-120 cell line,4.29
same,Loewe Volume,CAL-120 cell line,3.99
same,Synergy Score,CAL-120 cell line,11.20
same,Best CI,CAL-148 cell line,0.21
same,Bliss Volume,CAL-148 cell line,18.81
same,HSA volume,CAL-148 cell line,13.97
same,Loewe Volume,CAL-148 cell line,17.68
same,Synergy Score,CAL-148 cell line,29.60
same,Best CI,CAMA-1 cell line,0.40
same,Bliss Volume,CAMA-1 cell line,26.19
same,HSA volume,CAMA-1 cell line,5.28
same,Loewe Volume,CAMA-1 cell line,3.50
same,Synergy Score,CAMA-1 cell line,6.88
same,Best CI,DU-4475 cell line,0.43
same,Bliss Volume,DU-4475 cell line,10.55
same,HSA volume,DU-4475 cell line,1.06
same,Loewe Volume,DU-4475 cell line,0.39
same,Synergy Score,DU-4475 cell line,2.06
same,Best CI,EVSA-T cell line,0.51
same,Bliss Volume,EVSA-T cell line,2.50
same,HSA volume,EVSA-T cell line,1.44
same,Loewe Volume,EVSA-T cell line,1.31
same,Synergy Score,EVSA-T cell line,1.92
same,Best CI,HCC38,1.06
same,Bliss Volume,HCC38,17.98
same,HSA volume,HCC38,8.02
same,Loewe Volume,HCC38,11.04
same,Synergy Score,HCC38,11.55
same,Best CI,HCC70,0.09
same,Bliss Volume,HCC70,36.07
same,HSA volume,HCC70,21.70
same,Loewe Volume,HCC70,21.51
same,Synergy Score,HCC70,42.47
same,Best CI,HCC1143,0.47
same,Bliss Volume,HCC1143,14.84
same,HSA volume,HCC1143,7.69
same,Loewe Volume,HCC1143,8.83
same,Synergy Score,HCC1143,12.39
same,Best CI,HCC1569,0.76
same,Bliss Volume,HCC1569,17.69
same,HSA volume,HCC1569,11.68
same,Loewe Volume,HCC1569,14.89
same,Synergy Score,HCC1569,23.33
same,Best CI,HCC1806,0.15
same,Bliss Volume,HCC1806,25.34
same,HSA volume,HCC1806,19.39
same,Loewe Volume,HCC1806,21.61
same,Synergy Score,HCC1806,37.41
same,Best CI,HCC1937,0.84
same,Bliss Volume,HCC1937,13.93
same,HSA volume,HCC1937,5.77
same,Loewe Volume,HCC1937,10.37
same,Synergy Score,HCC1937,13.10
same,Best CI,HCC1954,0.06
same,Bliss Volume,HCC1954,37.73
same,HSA volume,HCC1954,19.30
same,Loewe Volume,HCC1954,19.31
same,Synergy Score,HCC1954,38.93
same,Best CI,HCC2218,0.05
same,Bliss Volume,HCC2218,30.06
same,HSA volume,HCC2218,10.84
same,Loewe Volume,HCC2218,8.50
same,Synergy Score,HCC2218,20.85
same,Best CI,HDQ-P1,0.57
same,Bliss Volume,HDQ-P1,10.17
same,HSA volume,HDQ-P1,9.28
same,Loewe Volume,HDQ-P1,9.93
same,Synergy Score,HDQ-P1,17.02
same,Best CI,HMC-1-8,0.24
same,Bliss Volume,HMC-1-8,19.74
same,HSA volume,HMC-1-8,14.99
same,Loewe Volume,HMC-1-8,15.17
same,Synergy Score,HMC-1-8,30.76
same,Best CI,JIMT-1,0.18
same,Bliss Volume,JIMT-1,10.52
same,HSA volume,JIMT-1,11.00
same,Loewe Volume,JIMT-1,11.11
same,Synergy Score,JIMT-1,17.62
CC(=O)c1c(C)c2cnc(Nc3ccc(N4CCNCC4)cn3)nc2n(C2CCCC2)c1=O [PD-0332991],Best CI,AU565 cell line,1.01
same,Bliss Volume,AU565 cell line,−1.48
same,HSA volume,AU565 cell line,−4.75
same,Loewe Volume,AU565 cell line,−4.99
same,Synergy Score,AU565 cell line,1.50
same,Best CI,BT-20 cell line,1.30
same,Bliss Volume,BT-20 cell line,−2.05
same,HSA volume,BT-20 cell line,−0.62
same,Loewe Volume,BT-20 cell line,−1.20
same,Synergy Score,BT-20 cell line,3.95
same,Best CI,BT-549 cell line,1.07
same,Bliss Volume,BT-549 cell line,5.11
same,HSA volume,BT-549 cell line,3.60
same,Loewe Volume,BT-549 cell line,5.15
same,Synergy Score,BT-549 cell line,3.67
same,Best CI,CAL-51 cell line,0.82
same,Bliss Volume,CAL-51 cell line,−3.23
same,HSA volume,CAL-51 cell line,−1.09
same,Loewe Volume,CAL-51 cell line,−1.26
same,Synergy Score,CAL-51 cell line,0.38
same,Best CI,CAL-85-1 cell line,0.75
same,Bliss Volume,CAL-85-1 cell line,−7.60
same,HSA volume,CAL-85-1 cell line,−8.20
same,Loewe Volume,CAL-85-1 cell line,−7.47
same,Synergy Score,CAL-85-1 cell line,0.30
same,Best CI,CAL-120 cell line,1.81
same,Bliss Volume,CAL-120 cell line,−0.11
same,HSA volume,CAL-120 cell line,−7.17
same,Loewe Volume,CAL-120 cell line,−6.92
same,Synergy Score,CAL-120 cell line,0.11
same,Best CI,CAL-148 cell line,0.21
same,Bliss Volume,CAL-148 cell line,−2.31
same,HSA volume,CAL-148 cell line,−5.69
same,Loewe Volume,CAL-148 cell line,−4.24
same,Synergy Score,CAL-148 cell line,0.81
same,Best CI,CAMA-1 cell line,0.49
same,Bliss Volume,CAMA-1 cell line,−4.96
same,HSA volume,CAMA-1 cell line,−11.74
same,Loewe Volume,CAMA-1 cell line,−11.95
same,Synergy Score,CAMA-1 cell line,0.99
same,Best CI,DU-4475 cell line,0.97
same,Bliss Volume,DU-4475 cell line,0.05
same,HSA volume,DU-4475 cell line,−1.86
same,Loewe Volume,DU-4475 cell line,−0.06
same,Synergy Score,DU-4475 cell line,0.30
same,Best CI,EVSA-T cell line,0.77
same,Bliss Volume,EVSA-T cell line,−4.20
same,HSA volume,EVSA-T cell line,−6.37
same,Loewe Volume,EVSA-T cell line,−5.67
same,Synergy Score,EVSA-T cell line,0.21
same,Best CI,HCC38,0.19
same,Bliss Volume,HCC38,−13.23
same,HSA volume,HCC38,−17.15
same,Loewe Volume,HCC38,−16.79
same,Synergy Score,HCC38,0.01
same,Best CI,HCC70,0.68
same,Bliss Volume,HCC70,4.80
same,HSA volume,HCC70,3.64
same,Loewe Volume,HCC70,4.83
same,Synergy Score,HCC70,8.66
same,Best CI,HCC1143,0.75
same,Bliss Volume,HCC1143,−2.16
same,HSA volume,HCC1143,−3.77
same,Loewe Volume,HCC1143,−0.95
same,Synergy Score,HCC1143,1.96
same,Best CI,HCC1569,0.78
same,Bliss Volume,HCC1569,8.10
same,HSA volume,HCC1569,4.93
same,Loewe Volume,HCC1569,8.19
same,Synergy Score,HCC1569,5.78
same,Best CI,HCC1806,0.02
same,Bliss Volume,HCC1806,−1.37
same,HSA volume,HCC1806,−4.31
same,Loewe Volume,HCC1806,−1.04
same,Synergy Score,HCC1806,0.99
same,Best CI,HCC1937,0.28
same,Bliss Volume,HCC1937,14.96
same,HSA volume,HCC1937,11.05
same,Loewe Volume,HCC1937,14.74
same,Synergy Score,HCC1937,21.45
same,Best CI,HCC1954,0.47
same,Bliss Volume,HCC1954,−7.91
same,HSA volume,HCC1954,−8.72
same,Loewe Volume,HCC1954,−7.32
same,Synergy Score,HCC1954,1.20
same,Best CI,HCC2218,1.10
same,Bliss Volume,HCC2218,−0.96
same,HSA volume,HCC2218,−1.25
same,Loewe Volume,HCC2218,−3.22
same,Synergy Score,HCC2218,7.27
same,Best CI,HDQ-P1,0.36
same,Bliss Volume,HDQ-P1,0.47
same,HSA volume,HDQ-P1,−6.53
same,Loewe Volume,HDQ-P1,−11.86
same,Synergy Score,HDQ-P1,0.17
same,Best CI,HMC-1-8,0.47
same,Bliss Volume,HMC-1-8,13.91
same,HSA volume,HMC-1-8,7.82
same,Loewe Volume,HMC-1-8,8.09
same,Synergy Score,HMC-1-8,12.76
